Laboratory results from patent publication US10017527B2, “KLK4 inhibitors” (Universiteit Antwerpen, priority 2014, dated 2018).
Like-named read-outs stand apart in the source and are kept apart here.

Legend:
Type in all cases: biochemical
uPA (recombinant) = target: T1, uPA (recombinant) (Homo sapiens, UniProt P00749); assay: uPA inhibition, chromogenic substrate Biophen CS-61(44)
T1 construct: purchased Nodia

[1] = target: T2, Neurtophil Elastase(human) (Homo sapiens, UniProt P08246); assay: Neutrophil elastase inhibition, chromogenic substrate MeOSuc-Ala-Ala-Pro-Val-pNA
T2 construct: purchased Enzo-life sciences
T2 sequence (P08246 30-267): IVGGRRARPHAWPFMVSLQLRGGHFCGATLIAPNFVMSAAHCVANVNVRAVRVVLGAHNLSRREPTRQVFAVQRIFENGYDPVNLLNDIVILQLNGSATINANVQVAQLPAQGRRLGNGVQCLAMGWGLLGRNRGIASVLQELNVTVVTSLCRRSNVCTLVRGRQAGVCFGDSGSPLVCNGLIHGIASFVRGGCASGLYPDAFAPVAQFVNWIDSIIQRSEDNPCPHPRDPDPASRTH
Source text: (§1) The IC50 values For KLK1, KLK2 and KLK8 were obtained in a similar way. For plasmin, tPA, thrombin, Fxa, HNE, Plasma kallikrein Chromogenic substrates were used (absorption: 405 nm). (KLK2, KLK4, KLK8 were supplied by Viktor Magdolen TUMunich (TUM)).

FXa = target: T3, FXa (Homo sapiens, UniProt P00742); assay: FXa inhibition, chromogenic substrate Biophen CS-11(32)
T3 construct: purchased Nodia
Source text: as §1

Plasmine (human plasma) = target: T4, Plasmine (human plasma) (Homo sapiens, UniProt P00747); assay: Plasmin inhibition, chromogenic substrate Biophen CS-21(66)
T4 construct: purchased Sigma-Aldrich; host or cells: human plasma
Source text: as §1

KLK8 (human) = target: T5, KLK8 (human) (Homo sapiens, UniProt O60259); assay: KLK8 inhibition, fluorogenic substrate Boc-Val-Pro-Arg-AMC
T5 construct: purchased Viktor Magdolen, TUMunich (TUM), supplied by an academic laboratory
T5 sequence (O60259 33-260): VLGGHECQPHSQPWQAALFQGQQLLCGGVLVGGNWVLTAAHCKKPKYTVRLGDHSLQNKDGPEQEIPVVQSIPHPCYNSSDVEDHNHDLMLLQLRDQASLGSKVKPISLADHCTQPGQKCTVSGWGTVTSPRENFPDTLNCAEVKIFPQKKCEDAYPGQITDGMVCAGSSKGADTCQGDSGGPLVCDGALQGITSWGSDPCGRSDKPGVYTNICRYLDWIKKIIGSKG
Source text: as §1

AcHE = AcHE (Homo sapiens, UniProt P22303); assay: AcHE inhibition
KLK1 (human) = target: T6, KLK1 (human) (Homo sapiens, UniProt P06870); assay: KLK1 inhibition, fluorogenic substrate H-Pro-Phe-Arg-AMC
T6 construct: purchased Prospec
Source text: as §1

KLK4 [2] = target: T7, KLK4 (Homo sapiens, UniProt Q9Y5K2); assay: KLK4 enzymatic inhibition, fluorogenic substrate Boc-Val-Pro-Arg-AMC
T7 construct: purchased Viktor Magdolen (TUM), supplied by an academic laboratory
Protocol: The substrate was obtained form Bachem and the enzyme was provided by Viktor Magdolen (TUM). The reaction was monitored with an excitation wavelength of 355 nm and emission wavelength of 460 nm. The initial rate was determined between 2500000 and 4500000 mRFU/min. The reaction mixture contained 25 μM substrate and approximately 1 mU of enzyme in 145 μL of buffer in a final volume of […]. A 50 mM Tris buffer, pH 8.3, was used. From each inhibitor concentration, 5 μL was added, obtaining a final concentration from 0 to 250 μM in a total volume of 0.2 mL. Activity measurements were routinely performed in duplicate. […] IC50 values were obtained by fitting the data with the four-parameter logistics equation using Grafit 7.
[formula] where s=slope factor, v=rate, I0=inhibitor concentration, and range=the fitted uninhibited value minus the background. The equation assumes they falls with increasing x.
(§2) Inhibitor stock solutions were prepared in DMSO and stored at −20° C. Because the compounds described in this paper completely inactivate KLK4 following pseudo first-order kinetics, the IC50 value is inversely correlated with the second-order rate constant of inactivation. For a simple pseudo first-order inactivation process, the activity after incubation with inhibitor (vi) varies with the inhibitor concentration (i), as described in the following equation: vi=v0×e^−k t, where vo is the activity in absence of inhibitor, k is the second-order rate constant of inactivation, and t is the time. The inactivation rate constant was determined from the time course of inhibition.

KLK4 [3] = target: T7, KLK4; assay: KLK4 inactivation kinetics from progress curves (kobs vs inhibitor concentration)
Protocol: as §2
The inhibitor was mixed with the substrate (250 μM final concentration), and the buffer solution with the enzyme was added at the time zero. […] The progress curves show the absorbance of aminomethylcoumarine produced as a function of time. Initially, no inhibitor is bound to the enzyme, and the tangent to the progress curve (dA/dt) is proportional to the concentration of the free enzyme. The concentration of free enzyme decreases over time due to the kinetics of inhibitor binding, as described above. Progress curves were recorded in pseudo first-order conditions ([I]0>>[E]0) and with less than 10% conversion of the substrate during the entire time course. In these conditions, dA/dt decreases exponentially with time. The progress curves were fitted with the integrated rate equation to yield a value for kobs, a pseudofirst-order rate constant At=v0[1−e^−k^obs^t]/kobs+A0 where At=absorbance at time t, A0=absorbance at time zero, and v0=uninhibited initial rate.
The apparent second-order rate constant (kapp) was calculated from the slope of the linear part of the plot of kobs versus the inhibitor concentration ([I]0). In case of competition between the inhibitor and the substrate, kapp is smaller than the “real” second order rate constant k discussed above because a certain fraction of the enzyme is present as an enzyme-substrate complex. kapp depends on the substrate concentration used in the experiment, as described by Lambeir et al. (Lambeir, Borloo et al. 1996).

Matriptase = target: T8, Matriptase (Homo sapiens, UniProt Q9Y5Y6); assay: Matriptase inhibition
T8 sequence (Q9Y5Y6 1-855): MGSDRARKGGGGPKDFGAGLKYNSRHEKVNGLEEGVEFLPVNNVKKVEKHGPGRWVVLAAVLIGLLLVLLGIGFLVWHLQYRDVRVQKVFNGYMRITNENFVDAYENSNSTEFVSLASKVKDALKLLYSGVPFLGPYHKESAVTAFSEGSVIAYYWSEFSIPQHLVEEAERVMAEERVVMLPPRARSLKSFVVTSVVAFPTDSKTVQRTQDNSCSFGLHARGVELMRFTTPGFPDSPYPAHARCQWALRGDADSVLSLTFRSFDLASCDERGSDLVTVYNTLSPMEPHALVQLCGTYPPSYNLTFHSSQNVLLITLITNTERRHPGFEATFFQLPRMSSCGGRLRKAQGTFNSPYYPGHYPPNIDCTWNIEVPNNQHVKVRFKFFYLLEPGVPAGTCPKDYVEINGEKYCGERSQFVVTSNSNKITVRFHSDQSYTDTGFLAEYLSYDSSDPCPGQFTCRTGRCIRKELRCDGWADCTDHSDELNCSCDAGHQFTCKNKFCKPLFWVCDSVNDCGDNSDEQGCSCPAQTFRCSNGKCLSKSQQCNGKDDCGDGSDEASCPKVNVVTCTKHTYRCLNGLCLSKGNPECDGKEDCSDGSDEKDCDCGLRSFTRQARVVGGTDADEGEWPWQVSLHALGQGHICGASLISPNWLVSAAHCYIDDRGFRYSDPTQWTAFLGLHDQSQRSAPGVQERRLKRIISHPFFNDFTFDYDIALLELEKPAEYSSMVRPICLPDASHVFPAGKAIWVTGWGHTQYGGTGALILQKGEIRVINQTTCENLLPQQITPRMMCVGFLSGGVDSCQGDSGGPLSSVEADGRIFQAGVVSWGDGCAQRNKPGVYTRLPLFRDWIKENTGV

Thrombine (human plasma) = target: T9, Thrombine (human plasma) (Homo sapiens, UniProt P00734); assay: Thrombin inhibition, chromogenic substrate Biophen CS-21(66)
T9 construct: purchased Sigma-Aldrich; host or cells: human plasma

tPA (recombinant) = target: T10, tPA (recombinant) (Homo sapiens, UniProt P00750); assay: tPA inhibition, chromogenic substrate Biophen CS-05(88)
T10 construct: purchased Nodia
Source text: as §1

PlasmaKLK (human plasma) = target: T11, PlasmaKLK (human plasma) (Homo sapiens, UniProt P03952); assay: Plasma kallikrein inhibition, chromogenic substrate Biophen CS-31(02)
T11 construct: purchased Sigma-Aldrich; host or cells: human plasma
Source text: as §1

KLK2 (human) = target: T12, KLK2 (human) (Homo sapiens, UniProt P20151); assay: KLK2 inhibition, fluorogenic substrate H-Pro-Phe-Arg-AMC
T12 construct: purchased Viktor Magdolen, TUMunich (TUM), supplied by an academic laboratory
Source text: as §1

[4] = Tris buffer pH 8.8, read-out: IC50 uPA
[5] = Tris buffer pH 7.8, read-out: IC50 HNE
[6] = Tris buffer pH 8.3, read-out: IC50 FXa
[7] = Plasmin, Tris buffer pH 7.4, read-out: IC50 PLM
[8] = 15 min pre-incubation at 37° C., Tris buffer pH 8.3, read-out: IC50 KLK4
[9] = Thrombin, Tris buffer pH 8.3, read-out: IC50 THR
[10] = Tris buffer pH 8.3, read-out: IC50 tPA
[11] = Plasma KLK, Tris buffer pH 7.8, read-out: IC50 pKLK

T10 sequence (P00750 36-562, species assumed): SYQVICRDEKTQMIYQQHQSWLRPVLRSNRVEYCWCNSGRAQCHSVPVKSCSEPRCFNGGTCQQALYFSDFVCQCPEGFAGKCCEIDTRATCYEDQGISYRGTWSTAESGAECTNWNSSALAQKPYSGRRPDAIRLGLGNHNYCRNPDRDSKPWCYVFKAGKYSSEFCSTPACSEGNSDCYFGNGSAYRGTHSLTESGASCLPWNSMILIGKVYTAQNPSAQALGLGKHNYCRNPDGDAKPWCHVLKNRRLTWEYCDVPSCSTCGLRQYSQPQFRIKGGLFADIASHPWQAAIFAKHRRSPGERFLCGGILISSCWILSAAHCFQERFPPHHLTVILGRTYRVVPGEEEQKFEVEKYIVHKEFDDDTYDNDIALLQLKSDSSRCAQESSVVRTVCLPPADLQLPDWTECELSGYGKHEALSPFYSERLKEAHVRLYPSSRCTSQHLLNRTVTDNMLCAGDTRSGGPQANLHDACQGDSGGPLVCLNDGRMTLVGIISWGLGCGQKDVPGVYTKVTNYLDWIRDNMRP
T3 sequence (P00742 235-488 limits assumed): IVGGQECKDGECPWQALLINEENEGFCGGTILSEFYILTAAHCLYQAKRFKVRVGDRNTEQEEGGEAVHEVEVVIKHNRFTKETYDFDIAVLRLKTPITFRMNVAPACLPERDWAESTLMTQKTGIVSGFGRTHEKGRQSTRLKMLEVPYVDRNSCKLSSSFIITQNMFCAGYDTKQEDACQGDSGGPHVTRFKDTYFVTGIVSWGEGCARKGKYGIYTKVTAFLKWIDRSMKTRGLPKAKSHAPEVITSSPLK
T3 sequence (P00742 41-179 partner limits assumed): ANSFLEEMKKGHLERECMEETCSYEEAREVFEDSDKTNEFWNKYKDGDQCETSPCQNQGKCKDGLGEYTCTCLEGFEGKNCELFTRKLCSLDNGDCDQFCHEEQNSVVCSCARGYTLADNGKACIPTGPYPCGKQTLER
T6 sequence (P06870 25-262): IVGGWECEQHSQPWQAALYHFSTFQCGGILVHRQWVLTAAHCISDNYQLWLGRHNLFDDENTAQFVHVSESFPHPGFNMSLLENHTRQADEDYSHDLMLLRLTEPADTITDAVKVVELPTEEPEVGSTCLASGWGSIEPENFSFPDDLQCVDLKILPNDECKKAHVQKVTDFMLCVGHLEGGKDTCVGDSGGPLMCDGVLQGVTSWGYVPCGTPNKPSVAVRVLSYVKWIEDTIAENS
T11 sequence (P03952 391-638 limits assumed): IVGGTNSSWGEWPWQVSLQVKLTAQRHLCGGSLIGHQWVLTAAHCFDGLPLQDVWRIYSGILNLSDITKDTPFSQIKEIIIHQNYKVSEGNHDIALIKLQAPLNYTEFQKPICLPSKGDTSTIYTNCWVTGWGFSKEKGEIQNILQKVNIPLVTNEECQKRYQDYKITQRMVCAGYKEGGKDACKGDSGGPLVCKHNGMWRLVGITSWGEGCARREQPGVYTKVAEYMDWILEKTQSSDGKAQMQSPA
T11 sequence (P03952 20-390 partner limits assumed): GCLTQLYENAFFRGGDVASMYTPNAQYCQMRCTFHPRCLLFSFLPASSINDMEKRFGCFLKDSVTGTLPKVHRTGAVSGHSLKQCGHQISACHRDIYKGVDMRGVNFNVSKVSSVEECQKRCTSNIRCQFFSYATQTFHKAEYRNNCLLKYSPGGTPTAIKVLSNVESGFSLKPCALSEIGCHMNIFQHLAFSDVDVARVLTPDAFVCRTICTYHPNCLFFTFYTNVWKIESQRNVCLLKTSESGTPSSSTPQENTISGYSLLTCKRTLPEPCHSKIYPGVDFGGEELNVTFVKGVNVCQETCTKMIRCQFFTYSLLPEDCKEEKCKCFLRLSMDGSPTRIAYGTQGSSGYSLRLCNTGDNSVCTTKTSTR
T4 sequence (P00747 581-810 limits assumed): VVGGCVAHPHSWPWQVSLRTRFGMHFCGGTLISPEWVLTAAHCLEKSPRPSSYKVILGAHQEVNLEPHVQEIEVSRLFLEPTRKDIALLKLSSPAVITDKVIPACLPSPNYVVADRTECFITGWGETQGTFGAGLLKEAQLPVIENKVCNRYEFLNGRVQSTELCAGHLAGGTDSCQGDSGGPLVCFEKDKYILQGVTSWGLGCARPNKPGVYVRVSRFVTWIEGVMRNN
T4 sequence (P00747 98-580 partner limits assumed): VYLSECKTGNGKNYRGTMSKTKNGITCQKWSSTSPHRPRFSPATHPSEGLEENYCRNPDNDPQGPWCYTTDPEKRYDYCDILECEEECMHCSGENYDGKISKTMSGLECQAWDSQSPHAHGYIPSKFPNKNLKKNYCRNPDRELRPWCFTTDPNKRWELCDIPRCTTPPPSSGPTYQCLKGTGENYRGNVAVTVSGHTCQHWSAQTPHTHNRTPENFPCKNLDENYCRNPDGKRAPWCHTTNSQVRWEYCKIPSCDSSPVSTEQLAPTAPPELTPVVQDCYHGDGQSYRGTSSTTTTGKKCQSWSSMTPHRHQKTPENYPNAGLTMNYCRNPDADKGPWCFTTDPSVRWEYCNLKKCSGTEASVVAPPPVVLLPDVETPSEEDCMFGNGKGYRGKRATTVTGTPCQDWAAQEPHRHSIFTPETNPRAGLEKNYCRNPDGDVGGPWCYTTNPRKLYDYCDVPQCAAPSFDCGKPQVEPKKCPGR
T7 sequence (Q9Y5K2 31-254): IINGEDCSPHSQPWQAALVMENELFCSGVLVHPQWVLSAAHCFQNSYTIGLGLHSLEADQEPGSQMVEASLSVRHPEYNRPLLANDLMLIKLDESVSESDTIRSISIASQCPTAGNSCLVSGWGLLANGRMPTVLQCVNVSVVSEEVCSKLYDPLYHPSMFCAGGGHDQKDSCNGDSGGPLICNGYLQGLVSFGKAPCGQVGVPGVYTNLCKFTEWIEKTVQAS
Sequence of AcHE (P22303 32-614): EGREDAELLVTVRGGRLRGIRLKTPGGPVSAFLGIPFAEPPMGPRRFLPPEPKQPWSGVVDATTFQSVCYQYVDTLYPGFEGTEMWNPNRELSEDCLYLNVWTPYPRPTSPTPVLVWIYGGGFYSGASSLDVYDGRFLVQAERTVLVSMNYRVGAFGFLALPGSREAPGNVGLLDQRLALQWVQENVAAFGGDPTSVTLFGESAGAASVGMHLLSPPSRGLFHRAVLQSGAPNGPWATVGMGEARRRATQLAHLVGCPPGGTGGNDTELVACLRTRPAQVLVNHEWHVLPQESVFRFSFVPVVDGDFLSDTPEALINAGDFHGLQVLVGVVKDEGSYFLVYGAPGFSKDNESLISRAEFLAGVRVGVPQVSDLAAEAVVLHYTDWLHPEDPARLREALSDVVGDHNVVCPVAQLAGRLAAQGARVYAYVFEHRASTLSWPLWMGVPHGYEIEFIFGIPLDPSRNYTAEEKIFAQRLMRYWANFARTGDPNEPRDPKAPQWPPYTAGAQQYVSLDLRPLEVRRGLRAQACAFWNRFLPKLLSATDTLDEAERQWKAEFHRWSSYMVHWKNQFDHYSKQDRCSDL
T12 sequence (P20151 25-261): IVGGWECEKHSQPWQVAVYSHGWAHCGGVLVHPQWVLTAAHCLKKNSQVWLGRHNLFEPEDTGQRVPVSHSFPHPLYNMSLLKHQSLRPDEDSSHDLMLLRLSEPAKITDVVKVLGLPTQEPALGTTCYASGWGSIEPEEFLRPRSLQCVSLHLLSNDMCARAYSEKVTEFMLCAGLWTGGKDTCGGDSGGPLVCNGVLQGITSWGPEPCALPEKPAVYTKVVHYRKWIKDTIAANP

Compound | IC50 (uPA (recombinant); [4]) [µM] | IC50 [1, 5] [µM] | IC50 (FXa; [6]) [µM] | IC50 (Plasmine (human plasma); [7]) [µM] | IC50 (KLK4 [2]; [8]) [µM] | IC50 (Matriptase; Matriptase, read-out: IC50 MAT) [µM] | IC50 (Thrombine (human plasma); [9]) [µM] | IC50 (tPA (recombinant); [10]) [µM] | IC50 (uPA (recombinant)) [µM] | IC50 [1] [µM] | IC50 (FXa) [µM] | IC50 (Plasmine (human plasma)) [µM] | IC50 (KLK8 (human)) [µM] | IC50 (AcHE) [µM] | IC50 (KLK1 (human)) [µM] | IC50 (KLK4 [2]) [µM] | IC50 (Matriptase) [µM] | IC50 (Thrombine (human plasma)) [µM] | IC50 (tPA (recombinant)) [µM] | IC50 (PlasmaKLK (human plasma)) [µM] | further results
2-((1E,3E,5Z)-5-(1-(6-((2-(4-(1-(diphenoxyphosphoryl)-1-(4-guanidinophenyl)-3-oxo-4,7,10-trioxa-2-azaundecan-11-yl)-1H-1,2,3-triazol-1-yl)ethyl)amino)-6-oxohexyl)-3,3-dimethylindolin-2-ylidene)penta-1,3-dien-1-yl)-1,3,3-trimethyl-3H-indol-1-ium [Compound 134] | 2.5 to 10 | 10 to 250 | 2.5 to 10 | 10 to 250 | 0.1 to 1 | 2.5 to 10 | 10 to 250 | > 250 | – | – | – | – | – | – | – | – | – | – | – | – | IC50 (KLK8 (human); Tris buffer pH 8, read-out: IC50 KLK8): 2.5 to 10 µM; IC50 (AcHE; read-out: IC50 AcHE): 10 to 250 µM; IC50 (KLK1 (human); Tris buffer pH 7.8, read-out: IC50 KLK1): 2.5 to 10 µM; kapp KLK4 (KLK4 [3]; apparent second-order rate constant, substrate 250 μM): 2240 M⁻¹ s⁻¹; Irreversible (KLK4) (KLK4 [3]; irreversible binding to KLK4, Yes/No): Yes/; IC50 (PlasmaKLK (human plasma); [11]): 10 to 250 µM
COCCOC(=O)NC(c1ccc(NC(=N)N)cc1)P(=O)(Oc1ccccc1)Oc1ccccc1 (stereo not drawn) [Compound 29, 2-methoxyethyl ((diphenoxyphosphoryl)(4-guanidinophenyl)methyl)carbamate 2,2,2-trifluoroacetate] | – | – | – | – | – | – | – | – | 10 to 250 | 2.5 to 10 | > 250 | 10 to 250 | 10 to 250 | 10 to 250 | 10 to 250 | 0.1 to 1 | 2.5 to 10 | > 250 | > 250 | > 250 | IC50 (KLK2 (human)): 0.1 to 1 µM
CCCCCC(=O)NCCOC(=O)NC(c1ccc(NC(=N)N)cc1)P(=O)(Oc1ccccc1)Oc1ccccc1 (stereo not drawn) [Compound 31, 2-hexanamidoethyl ((diphenoxyphosphoryl)(4-guanidinophenyl)methyl) carbamate 2,2,2-trifluoroacetaat] | – | – | – | – | – | – | – | – | 10 to 250 | 10 to 250 | 10 to 250 | > 250 | 10 to 250 | 10 to 250 | 10 to 250 | 0.1 to 1 | 2.5 to 10 | > 250 | > 250 | 10 to 250 | –
N=C(N)Nc1ccc(C(NC(=O)OCCOCCOCc2cn(CCOCCOCCOCCNC(=O)CN3CCN(CC(=O)O)CCN(CC(=O)O)CCN(CC(=O)O)CC3)nn2)P(=O)(Oc2ccccc2)Oc2ccccc2)cc1 (stereo not drawn) [Compound 83, 2,2′,2″-(10-(14-(4-(1-(diphenoxyphosphoryl)-1-(4-guanidinophenyl)-3-oxo-4,7,10-trioxa-2-azaundecan-11-yl)-1H-1,2,3-triazol-1-yl)-2-oxo-6,9,12-trioxa-3-azatetradecyl)-1,4,7,10-tetraazacyclododecane-1,4,7-triyl)triacetic acid] | – | – | – | – | – | – | – | – | 2.5 to 10 | – | 10 to 250 | 10 to 250 | – | 10 to 250 | 2.5 to 10 | < 0.1 | 2.5 to 10 | 10 to 250 | 2.5 to 10 | 10 to 250 | –
CCCCCCOC(=O)NC(c1ccc(NC(=N)N)cc1)P(=O)(Oc1ccccc1)Oc1ccccc1 (stereo not drawn) [Compound 92, Hexyl ((diphenoxyphosphoryl)(4-guanidinophenyl)methyl)carbamate] | – | – | – | – | – | – | – | – | 2.5 to 10 | 2.5 to 10 | 2.5 to 10 | 2.5 to 10 | 2.5 to 10 | 10 to 250 | 1 to 2.5 | < 0.1 | – | – | 2.5 to 10 | 2.5 to 10 | IC50 (KLK2 (human)): 0.1 to 1 µM
CCN(CC)c1ccc2c(-c3ccccc3C(=O)N3CCN(C(=O)CCCCCCCn4cc(COCCOCCOC(=O)NC(c5ccc(NC(=N)N)cc5)P(=O)(Oc5ccccc5)Oc5ccccc5)nn4)CC3)c3ccc(=[N+](CC)CC)cc-3oc2c1 (stereo not drawn) [Compound 133, N-(6-(diethylamino)-9-(2-(4-(8-(4-(1-(diphenoxyphosphoryl)-1-(4-guanidinophenyl)-3-oxo-4,7,10-trioxa-2-azaundecan-11-yl)-1H-1,2,3-triazol-1-yl)octanoyl)piperazine-1-carbonyl)phenyl)-3H-xanthen-3-ylidene)-N-ethylethanaminium] | 2.5 to 10 | 10 to 250 | 2.5 to 10 | 10 to 250 | < 0.1 | 2.5 to 10 | 10 to 250 | > 250 | – | – | – | – | – | – | – | – | – | – | – | – | IC50 (PlasmaKLK (human plasma); [11]): 10 to 250 µM
